The values below come from patent US20130040991A1, “PHARMACEUTICAL COMPOSITION COMPRISING GEMFIBROZIL AND CYP2C8 AND/OR OATP SUBSTRATE DRUG SUCH AS REPAGLINIDE” (priority 2010, published 2013).

For data set [1], the target named is T1, CYP2C8 (Homo sapiens, UniProt P10632).
T1 sequence (P10632 1-490): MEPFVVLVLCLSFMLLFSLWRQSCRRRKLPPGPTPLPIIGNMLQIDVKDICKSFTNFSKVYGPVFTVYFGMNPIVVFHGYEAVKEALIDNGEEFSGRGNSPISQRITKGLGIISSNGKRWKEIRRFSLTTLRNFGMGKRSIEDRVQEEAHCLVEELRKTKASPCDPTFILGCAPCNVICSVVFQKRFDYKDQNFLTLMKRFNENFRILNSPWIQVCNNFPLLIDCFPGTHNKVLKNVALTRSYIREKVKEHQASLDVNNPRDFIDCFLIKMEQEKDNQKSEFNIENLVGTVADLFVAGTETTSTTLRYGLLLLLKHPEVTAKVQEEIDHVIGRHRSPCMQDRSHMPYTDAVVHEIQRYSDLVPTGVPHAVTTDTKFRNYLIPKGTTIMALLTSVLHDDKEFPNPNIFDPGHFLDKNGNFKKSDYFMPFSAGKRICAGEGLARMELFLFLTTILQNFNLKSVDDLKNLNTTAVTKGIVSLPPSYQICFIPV
More on the design: Estimation of CYP2C8 Half-Life Using Repaglinide as an in Vivo Probe; host or cells: in vivo (subjects of the cited studies). The following applies: cited from earlier work.

The target of data set [2] is T1, CYP2C8. More on the design: Estimation of CYP2C8 Half-Life Using Repaglinide as an in Vivo Probe; host or cells: in vivo (subjects of the cited studies). The following applies: gemfibrozil 600 mg twice daily; Tornio et al 2008; cited from earlier work.
Data set [3] concerns the target T1, CYP2C8. Briefly: Effect of single oral gemfibrozil doses on repaglinide AUC, fitted to a mechanistic model of CYP2C8 inhibition. The format is in vivo. Also on record: The subjects ingested in a cross-over study a small dose (0.25 mg) of repaglinide with different doses of gemfibrozil; from tissue; host or cells: living human subjects (in vivo).
Protocol: The effect of various oral single doses (30 mg, 100 mg, 300 mg and 900 mg) of gemfibrozil on the total plasma exposure, i.e., area under the plasma concentration-time curve (AUC), of a CYP2C8 and OATP1B1 substrate drug (repaglinide) was measured. The mean fold increase in the AUC (AUCi/AUCc) of repaglinide with the different gemfibrozil doses in six human subjects is given in relation to the mean average plasma concentration of gemfibrozil 1-O-β-glucuronide during 10 hours after gemfirozil dosing (Cavg). The subjects ingested in a cross-over study a small dose (0.25 mg) of repaglinide with different doses of gemfibrozil. Venous blood samples were taken at fixed time points up to 10 hours after gemfibrozil dosing, and plasma repaglinide, gemfibrozil and gemfibrozil 1-O-β-glucuronide concentrations were determined using a validated liquid chromatographic-tandem mass spectrometric (LC/MSMS) method. The data were fitted to the following mechanistic model (equation):
Data set [4] can be described thus: Effects of different gemfibrozil doses on plasma profiles of repaglinide, repaglinide dose adjusted to equal AUC. Format: in vivo, human. Conditions: when the ratio of gemfibrozil (0-900 mg) to repaglinide is increased; repaglinide dose adjusted to same AUC. How it is done:
The effects of different doses of gemfibrozil (0 mg, 30 mg, 100 mg, 300 mg and 900 mg) on plasma profiles of repaglinide were measured. The doses of repaglinide were adjusted so that the total exposure to repaglinide (defined as the area under plasma repaglinide concentration-time curve, AUC) is the same in all 5 cases, corresponding to the AUC after a single dose of 0.25 mg repaglinide without gemfibrozil.

The structures appear in SMILES notation.

Regarding `Cc1ccc(C)c(OCCCC(C)(C)C(=O)O[C@@H]2O[C@H](C(=O)O)[C@@H](O)[C@H](O)[C@H]2O)c1` [gemfibrozil 1-O-β-glucuronide], in data set [1], the “inhibitor of CYP2C8 (qualitative)” value is “potent inhibitor and inactivator”.

Consider `Cc1ccc(C)c(OCCCC(C)(C)C(=O)O)c1` [gemfibrozil, 5-(2,5-dimethylphenoxy)-2,2-dimethyl-pentanoic acid], for which the “persistence of the risk of gemfibrozil-related interactions (effect on repaglinide pharmacokinetics) after the dose” value in data set [2] was “at Least 12 hours”. In data set [3] (repeated dosing, gemfibrozil doses <30 mg, due to irreversible inhibition of CYP2C8), the “effect of small gemfibrozil doses in repeated dosing” value was “increased”. Besides, the “inhibition of the CYP2C8 enzyme” value in data set [3] (single oral dose of 100 mg gemfibrozil, model-based from fold increase in repaglinide (0.25 mg) AUC, six human subjects) was 90%. Also, in data set [1], the “inhibitor of CYP2C8 (qualitative)” value is recorded as “relatively weak inhibitor”.

With `CCOc1cc(CC(=O)N[C@@H](CC(C)C)c2ccccc2N2CCCCC2)ccc1C(=O)O` [repaglinide], in data set [4], the “elimination half-life (and effect) of repaglinide” value is given as “prolonged” and the “estimated peak concentration of repaglinide” value was “reduced”.
